Experimental data reported in publication PMC9112332, “Structure-Based Design of α-Substituted Mercaptoacetamides as Inhibitors of the Virulence Factor LasB from Pseudomonas aeruginosa” (ACS Infectious Diseases, 2022).
Read-outs that look alike come from different tables or passages of the source.

Columns and labels:
MMP-2 = biological target: T1, MMP-2 (Homo sapiens, UniProt P08253); test: Human off-target inhibition assay, MMP-2; type: biochemical
T1 sequence (P08253 110-660): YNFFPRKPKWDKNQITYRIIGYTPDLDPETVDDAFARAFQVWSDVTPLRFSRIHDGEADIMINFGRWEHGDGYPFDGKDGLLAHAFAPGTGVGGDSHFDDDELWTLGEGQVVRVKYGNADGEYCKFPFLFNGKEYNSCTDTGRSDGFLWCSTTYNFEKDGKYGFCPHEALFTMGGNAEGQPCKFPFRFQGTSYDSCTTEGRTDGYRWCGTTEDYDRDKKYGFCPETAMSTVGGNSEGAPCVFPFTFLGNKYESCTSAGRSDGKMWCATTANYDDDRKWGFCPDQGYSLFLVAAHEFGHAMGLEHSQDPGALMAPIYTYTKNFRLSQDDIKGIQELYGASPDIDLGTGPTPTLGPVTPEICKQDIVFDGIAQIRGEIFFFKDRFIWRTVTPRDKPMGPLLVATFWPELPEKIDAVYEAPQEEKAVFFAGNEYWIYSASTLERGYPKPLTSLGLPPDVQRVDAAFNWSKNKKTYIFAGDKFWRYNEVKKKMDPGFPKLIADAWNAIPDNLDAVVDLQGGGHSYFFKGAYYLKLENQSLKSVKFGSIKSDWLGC

MMP-3 = MMP-3 (Homo sapiens, UniProt P08254); test: Human off-target inhibition assay, MMP-3; type: biochemical
Chain of MMP-3 (P08254 100-477): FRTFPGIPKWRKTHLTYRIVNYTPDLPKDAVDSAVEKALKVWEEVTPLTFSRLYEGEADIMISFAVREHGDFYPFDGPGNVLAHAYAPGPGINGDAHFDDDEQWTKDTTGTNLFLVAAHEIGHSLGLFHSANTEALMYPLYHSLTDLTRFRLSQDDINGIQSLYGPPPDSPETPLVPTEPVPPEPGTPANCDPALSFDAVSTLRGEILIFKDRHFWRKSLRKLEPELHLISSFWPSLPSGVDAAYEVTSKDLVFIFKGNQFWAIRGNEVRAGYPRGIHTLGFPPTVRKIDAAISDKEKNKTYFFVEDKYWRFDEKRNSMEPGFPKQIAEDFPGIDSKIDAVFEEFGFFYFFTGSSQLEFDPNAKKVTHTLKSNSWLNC

MMP-7 = biological target: T2, MMP-7 (Homo sapiens, UniProt P09237); test: Human off-target inhibition assay, MMP-7; type: biochemical
T2 sequence (P09237 95-267): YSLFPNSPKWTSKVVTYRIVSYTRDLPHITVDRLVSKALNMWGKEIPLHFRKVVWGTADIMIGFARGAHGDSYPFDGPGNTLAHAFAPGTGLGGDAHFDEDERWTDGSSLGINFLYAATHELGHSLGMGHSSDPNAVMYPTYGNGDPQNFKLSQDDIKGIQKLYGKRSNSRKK

LasB = LasB (Pseudomonas aeruginosa, UniProt Q02RJ6); test: LasB inhibition assay (FRET-based, in vitro)
Chain of LasB (Q02RJ6 198-498): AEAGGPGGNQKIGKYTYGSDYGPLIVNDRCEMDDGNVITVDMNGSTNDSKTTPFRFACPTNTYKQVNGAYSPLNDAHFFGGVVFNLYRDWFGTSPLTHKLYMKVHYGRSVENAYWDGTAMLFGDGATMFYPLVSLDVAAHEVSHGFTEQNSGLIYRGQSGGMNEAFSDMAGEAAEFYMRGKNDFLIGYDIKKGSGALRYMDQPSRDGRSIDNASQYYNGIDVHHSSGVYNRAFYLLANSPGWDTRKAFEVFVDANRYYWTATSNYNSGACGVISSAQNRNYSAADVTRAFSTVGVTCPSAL
Procedure: LasB Inhibition Assay. The purification of LasB from P. aeruginosa P14 supernatant as well
as the subsequent performance of the FRET-based in vitro inhibition assay was performed as
described previously.1 All samples were run in duplicate for each condition, and experiments
were performed independently at least twice.

MMP-14 = MMP-14 (Homo sapiens, UniProt P50281); test: Human off-target inhibition assay, MMP-14; type: biochemical
MMP-1 = biological target: T3, MMP-1 (Homo sapiens, UniProt P03956); test: Human off-target inhibition assay, MMP-1; type: biochemical
T3 sequence (P03956 100-469): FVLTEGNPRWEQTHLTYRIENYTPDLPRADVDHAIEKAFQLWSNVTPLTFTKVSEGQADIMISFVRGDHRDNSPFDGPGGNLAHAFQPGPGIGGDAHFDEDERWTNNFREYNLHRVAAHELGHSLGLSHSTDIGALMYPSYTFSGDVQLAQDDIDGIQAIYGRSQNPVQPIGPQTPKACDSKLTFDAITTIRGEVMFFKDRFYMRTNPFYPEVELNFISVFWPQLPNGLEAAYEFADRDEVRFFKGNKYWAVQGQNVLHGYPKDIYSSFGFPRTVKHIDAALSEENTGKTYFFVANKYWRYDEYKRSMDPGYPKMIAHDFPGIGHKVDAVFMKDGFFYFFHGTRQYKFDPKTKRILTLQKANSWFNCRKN

MMP-8 = MMP-8 (Homo sapiens, UniProt P22894); test: Human off-target inhibition assay, MMP-8; type: biochemical
Chain of MMP-8 (P22894 101-467): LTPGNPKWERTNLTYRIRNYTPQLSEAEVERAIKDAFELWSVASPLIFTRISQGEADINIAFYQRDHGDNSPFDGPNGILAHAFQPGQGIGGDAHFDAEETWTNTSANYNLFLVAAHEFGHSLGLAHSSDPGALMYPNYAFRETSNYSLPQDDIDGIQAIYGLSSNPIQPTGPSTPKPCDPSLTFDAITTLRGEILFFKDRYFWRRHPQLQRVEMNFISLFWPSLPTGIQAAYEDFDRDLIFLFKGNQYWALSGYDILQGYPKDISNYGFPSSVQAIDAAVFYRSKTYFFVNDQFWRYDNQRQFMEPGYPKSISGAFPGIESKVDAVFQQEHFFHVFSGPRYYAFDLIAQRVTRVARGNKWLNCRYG

HDAC-3 = HDAC-3 (Homo sapiens, UniProt O15379); test: Human off-target inhibition assay, HDAC-3; type: biochemical
Chain of HDAC-3 (O15379 whole entry): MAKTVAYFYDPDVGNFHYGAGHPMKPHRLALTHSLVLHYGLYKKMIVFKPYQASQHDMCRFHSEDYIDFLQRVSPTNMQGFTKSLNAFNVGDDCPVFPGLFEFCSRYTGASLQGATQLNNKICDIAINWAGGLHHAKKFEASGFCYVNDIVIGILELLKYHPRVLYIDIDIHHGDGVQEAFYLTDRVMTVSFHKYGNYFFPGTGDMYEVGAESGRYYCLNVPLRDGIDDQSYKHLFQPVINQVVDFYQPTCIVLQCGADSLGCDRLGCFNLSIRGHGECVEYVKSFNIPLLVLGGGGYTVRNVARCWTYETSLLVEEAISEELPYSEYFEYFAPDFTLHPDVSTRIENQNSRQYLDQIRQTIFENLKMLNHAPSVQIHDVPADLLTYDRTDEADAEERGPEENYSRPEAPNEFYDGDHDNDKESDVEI
Chain of HDAC-3 (Q9Y618 395-489 partner limits assumed): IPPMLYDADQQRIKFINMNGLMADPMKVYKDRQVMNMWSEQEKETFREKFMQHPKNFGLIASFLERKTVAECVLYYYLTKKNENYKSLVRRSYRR
Procedure: (§1) Table 3 Activities of Four LasB Inhibitors against the Selected MMPs (% of inhibition at 100 μM) and Further Human Off-Targets ^a | column: 3; 12; 13; 23

ColH-PD = ColH-PD (Hathewaya histolytica, UniProt Q46085); test: biochemical; set-up: species or system C. histolyticum; settings: for inhibition at 1 µM: read-out: % inh. of ColH-PD @1µM
Chain of ColH-PD (Q46085 331-721 limits assumed): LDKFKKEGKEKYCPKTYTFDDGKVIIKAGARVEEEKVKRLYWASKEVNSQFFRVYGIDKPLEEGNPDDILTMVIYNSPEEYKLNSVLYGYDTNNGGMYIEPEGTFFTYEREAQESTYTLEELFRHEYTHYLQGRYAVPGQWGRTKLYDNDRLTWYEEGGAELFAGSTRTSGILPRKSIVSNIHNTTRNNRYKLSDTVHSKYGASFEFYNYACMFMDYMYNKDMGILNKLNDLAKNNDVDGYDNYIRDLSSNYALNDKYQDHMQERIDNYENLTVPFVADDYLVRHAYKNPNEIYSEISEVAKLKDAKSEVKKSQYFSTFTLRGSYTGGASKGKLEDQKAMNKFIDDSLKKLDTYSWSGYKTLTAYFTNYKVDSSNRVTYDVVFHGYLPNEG

HDAC-8 = biological target: T4, HDAC-8 (Homo sapiens, UniProt Q9BY41); test: Human off-target inhibition assay, HDAC-8; type: biochemical
T4 sequence (Q9BY41 1-377): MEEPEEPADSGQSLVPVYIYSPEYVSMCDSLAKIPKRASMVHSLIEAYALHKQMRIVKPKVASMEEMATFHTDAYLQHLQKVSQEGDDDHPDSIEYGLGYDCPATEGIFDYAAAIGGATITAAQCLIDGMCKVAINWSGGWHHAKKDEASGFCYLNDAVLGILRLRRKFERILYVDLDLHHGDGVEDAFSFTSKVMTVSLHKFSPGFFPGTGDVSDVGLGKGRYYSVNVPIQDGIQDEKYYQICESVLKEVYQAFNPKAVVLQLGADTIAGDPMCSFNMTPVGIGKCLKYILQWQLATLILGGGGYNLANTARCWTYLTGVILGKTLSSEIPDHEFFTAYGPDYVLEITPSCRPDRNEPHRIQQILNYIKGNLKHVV
Procedure: as §1

ADAM17 = ADAM17 (Homo sapiens, UniProt P78536); test: Human off-target inhibition assay, ADAM17 (TACE); type: biochemical
Chain of ADAM17 (P78536 215-824): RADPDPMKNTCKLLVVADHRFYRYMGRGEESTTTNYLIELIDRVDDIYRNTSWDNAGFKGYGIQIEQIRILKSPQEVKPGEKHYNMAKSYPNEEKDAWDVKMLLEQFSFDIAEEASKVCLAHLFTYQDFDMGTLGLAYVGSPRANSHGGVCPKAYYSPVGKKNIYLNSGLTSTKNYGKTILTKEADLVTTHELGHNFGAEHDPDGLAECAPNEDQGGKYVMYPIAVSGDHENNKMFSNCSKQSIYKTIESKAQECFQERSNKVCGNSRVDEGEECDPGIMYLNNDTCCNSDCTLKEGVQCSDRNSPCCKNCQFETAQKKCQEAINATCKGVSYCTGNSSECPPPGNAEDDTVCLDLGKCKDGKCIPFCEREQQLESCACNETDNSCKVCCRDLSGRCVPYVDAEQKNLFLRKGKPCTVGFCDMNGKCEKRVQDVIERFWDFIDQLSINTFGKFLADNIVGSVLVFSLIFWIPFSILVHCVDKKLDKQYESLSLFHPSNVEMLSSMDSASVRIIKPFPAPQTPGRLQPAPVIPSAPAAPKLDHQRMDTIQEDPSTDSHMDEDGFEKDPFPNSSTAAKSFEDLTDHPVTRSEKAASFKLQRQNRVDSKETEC

[1] = test system: A549 cells treated with wt PA14 supernatant; settings: 15% (v/v) wt PA14 supernatant; for effect on viability of A549 cells treated with wt PA14 supernatant (in words): MTT
[2] = test system: A549 cells treated with ΔlasB PA14 supernatant; type: cell-based, human; settings: 15% (v/v) ΔlasB PA14 supernatant, MTT
[3] = test system: NHDF cells treated with wt PA14 supernatant; type: cell-based, human; settings: 15% (v/v) wt PA14 supernatant; for effect on viability of NHDF cells treated with wt PA14 supernatant (in words): MTT
G. mellonella larvae = test: In vivo Galleria mellonella virulence assay; settings: compound with wt PA14 supernatant, after 6 days
zebrafish embryos = test: Zebrafish embryo toxicity (maximum tolerated concentration) assay; type: in vivo; settings: for toxicity (larvae with toxicity signs): Table S2
[4] = Cytotoxicity assay, HEK293; type: cell-based; settings: HEK293 cells; human embryonic kidney cells
P. aeruginosa PA14 = test: Antibacterial activity (MIC) assay; type: cell-based, Pseudomonas aeruginosa
[5] = Cytotoxicity assay, HepG2; type: cell-based; settings: HepG2 cells; human hepatoma cell line
Cytotoxicity assay, A549 = type: cell-based; settings: A549 cells; adenocarcinomic human alveolar basal epithelial cells
[6] = test system: A549 cells treated with wt PA14 supernatant; test: cells; settings: Homo sapiens, A549, 24 h, read-out: increase in viability of A549 cells

For `Cc1ccc(NC(=O)C(S)Cc2ccccc2)cc1` (centres unmarked) [Compound 3], the inhibition at 100 µM (MMP-2) was less than 10%, the inhibition at 100 µM (MMP-3) was less than 10% and the inhibition at 100 µM (MMP-7) was less than 10%. For the same compound, the “boost in potency compared to compound 4” value (LasB; LasB IC50 ratio vs compound 4) was 12 fold, the “ligand efficiency (LE)” value (LasB; calculated from LasB activity) was 0.43 and the “lipophilic ligand efficiency (LLE)” value (LasB; calculated from LasB activity) was 2.37. For the same compound, the inhibition at 100 µM (MMP-14) was less than 10%, the inhibition at 100 µM (MMP-1) was less than 10% and the inhibition at 100 µM (MMP-8) was less than 10%. It also gave an IC50 (HDAC-3) greater than 100000 nM, a Ki (ColH-PD) of 50 ± 10 nM and an IC50 (HDAC-8) greater than 100000 nM.
`O=C(Nc1ccccc1)C(S)Cc1ccccc1` (centres unmarked) [Compound 5] showed an IC50 (LasB; read-out: IC50 against LasB, mean and SD of at least two independent experiments) of 1200 ± 100 nM and a Ki (ColH-PD) of 400 ± 40 nM.
`O=C(Nc1ccc([N+](=O)[O-])cc1)C(S)Cc1ccccc1` (centres unmarked) [Compound 11] gave an IC50 (LasB) of 1000 ± 100 nM and an inhibition at 1 µM (ColH-PD) of 88 ± 2%.
In the case of `COc1ccc(NC(=O)C(S)Cc2ccccc2)cc1` (centres unmarked) [Compound 12, 2-Mercapto-N-(4-methoxyphenyl)-3-phenylpropanamide], the IC50 (ADAM17) is reported as 4100 ± 100 nM, the inhibition at 100 µM (MMP-2) is reported as less than 10% and the “effect on viability of A549 cells treated with wt PA14 supernatant (in words)” value [1] is reported as “Dose-dependent effect”. For the same compound, the “effect on A549 cells treated with ΔlasB PA14 supernatant (in words)” value [2] was “no effect”, the “effect on viability of NHDF cells treated with wt PA14 supernatant (in words)” value [3] was “Concentrations-dependent effects” and the inhibition at 100 µM (MMP-3) was less than 10%. The inhibition at 100 µM (MMP-7) was less than 10%, the survival of larvae (G. mellonella larvae) was 70 ± 5% and the IC50 (LasB) was 700 ± 30 nM. For the same compound, the inhibition at 100 µM (MMP-14) was less than 10%, the inhibition at 100 µM (MMP-1) was less than 10% and the inhibition at 100 µM (MMP-8) was 12 ± 2%. For the same compound, the IC50 (HDAC-3) was greater than 100000 nM, the Ki (ColH-PD) was 40 ± 10 nM and the Survival rate % (zebrafish embryos; 2 µM) was 100%. The “toxicity (larvae with toxicity signs)” value (zebrafish embryos; 2 µM) was “No toxicity signs were observed”, the Survival rate % (zebrafish embryos; 30 µM) was 0% and the embryo observation (zebrafish embryos; 30 µM, 2 dpf) was “imp. dev”. The embryo observation (zebrafish embryos; 30 µM, 3 dpf) was “all dead”, the “toxicity (larvae with toxicity signs)” value (zebrafish embryos; 30 µM) was 100% and the Survival rate % (zebrafish embryos; 50 µM) was 0%. The embryo observation (zebrafish embryos; 50 µM, 3 dpf) was “all dead”, the “toxicity (larvae with toxicity signs)” value (zebrafish embryos; 50 µM) was 100% and the Survival rate % (zebrafish embryos; 100 µM) was 0%. The embryo observation (zebrafish embryos; 100 µM, 2 dpf) was “all dead”, the “toxicity (larvae with toxicity signs)” value (zebrafish embryos; 100 µM) was 100% and the “maximum tolerated concentration (MTC)” value (zebrafish embryos; zebrafish embryos, until 120 hpf) was no more than 2 µM. It also gave an IC50 (HDAC-8) greater than 100000 nM.
`O=C(Nc1ccc(O)cc1)C(S)Cc1ccccc1` (centres unmarked) [Compound 13] gave an IC50 [4] greater than 100000 nM, an IC50 (ADAM17) of 2300 ± 1400 nM and an inhibition at 100 µM (MMP-2) of less than 10%. For the same compound, the MIC (P. aeruginosa PA14; Pseudomonas aeruginosa, P. aeruginosa PA14) was greater than 100 µM, the “reduction of bacterial growth” value (P. aeruginosa PA14; at 100 μM) was “less than 10%” and the “effect on viability of A549 cells treated with wt PA14 supernatant (in words)” value [1] was “Dose-dependent effect”. The “effect on A549 cells treated with ΔlasB PA14 supernatant (in words)” value [2] was “no effect”, the IC50 [5] was greater than 100000 nM and the “effect on viability of NHDF cells treated with wt PA14 supernatant (in words)” value [3] was “Concentrations-dependent effects”. For the same compound, the inhibition at 100 µM (MMP-3) was less than 10%, the inhibition at 100 µM (MMP-7) was less than 10% and the IC50 (Cytotoxicity assay, A549) was greater than 100000 nM. For the same compound, the IC50 (LasB) was 600 ± 40 nM, the inhibition at 100 µM (MMP-14) was less than 10% and the inhibition at 100 µM (MMP-1) was less than 10%. The inhibition at 100 µM (MMP-8) was 19 ± 4%, the IC50 (HDAC-3) was greater than 250000 nM and the Ki (ColH-PD) was 100 ± 20 nM. For the same compound, the IC50 (HDAC-8) was greater than 250000 nM.
In the case of `Cc1ccc(CC(S)C(=O)Nc2ccccc2)cc1` (centres unmarked) [Compound 14], the IC50 (LasB) is reported as 2800 ± 300 nM and the inhibition at 1 µM (ColH-PD) is reported as 69 ± 3%.
For `O=C(Nc1ccccc1)C(S)Cc1ccc(O)cc1` (centres unmarked) [Compound 15], the IC50 (LasB) was 7400 ± 600 nM, the “decrease in activity compared to compound 3” value (LasB; LasB IC50 ratio vs compound 3) was 15 fold and the inhibition at 1 µM (ColH-PD) was 63 ± 2%.
`O=C(Nc1ccccc1)C(S)Cc1ccc(O)c([N+](=O)[O-])c1` (centres unmarked) [Compound 16] gave an IC50 (LasB) of 2500 ± 200 nM and an inhibition at 1 µM (ColH-PD) of 74 ± 5%.
For `O=C(Nc1ccccc1)C(S)Cc1ccc(Cl)cc1` (centres unmarked) [Compound 17], the IC50 (LasB) was 1100 ± 100 nM.
Work on `O=C(Nc1nccs1)C(S)Cc1ccccc1` (centres unmarked) [Compound 18] yielded an IC50 (LasB) of 1600 ± 100 nM and an inhibition at 1 µM (ColH-PD) of 34 ± 3%.
Compound `COC(=O)c1ccsc1NC(=O)C(S)Cc1ccccc1` (centres unmarked) [Compound 19] has an IC50 (LasB) of 8000 ± 1100 nM.
Work on `O=C(Nc1cccnc1)C(S)Cc1ccccc1` (centres unmarked) [Compound 20] yielded an IC50 (LasB) of 1200 ± 40 nM.
`O=C(Nc1ccccn1)C(S)Cc1ccccc1` (centres unmarked) [Compound 21] gave an IC50 (LasB) of 3100 ± 200 nM.
Work on `O=C(Nc1ccncc1)C(S)Cc1ccccc1` (centres unmarked) [Compound 22] yielded an IC50 (LasB) of 4900 ± 500 nM.
With `COc1ccc2nc(NC(=O)C(S)Cc3ccccc3)sc2c1` (centres unmarked) [Compound 24] the “effect on viability of A549 cells treated with wt PA14 supernatant (in words)” value [1] was “Dose-dependent effect”, the “effect on A549 cells treated with ΔlasB PA14 supernatant (in words)” value [2] was “no effect” and the IC50 (LasB) was 1000 ± 100 nM. It also gave a Ki (ColH-PD) of 28000 ± 1000 nM and a viability at 50 µM [6] of 80 ± 15%.
`O=C(Nc1nc2ccc(Cl)cc2s1)C(S)Cc1ccccc1` (centres unmarked) [Compound 25] gave an IC50 (LasB) of 2400 ± 200 nM.
With `O=C(Nc1nc2ccccc2[nH]1)C(S)Cc1ccccc1` (centres unmarked) [Compound 26] the “inhibitory activity against LasB (in words)” value (LasB; compared to compound 23) was “dramatic decrease in the inhibitory activity”.
For `CC(C)C[C@H](NP(=O)(O)O[C@@H]1O[C@@H](C)[C@H](O)[C@@H](O)[C@H]1O)C(=O)N[C@@H](Cc1c[nH]c2ccccc12)C(=O)O` [Pam, phosphoramidon, reference compound], the “cell integrity and morphology of A549 cells (bright-field imaging)” value [1] was “cell integrity and morphology were maintained” and the “cell integrity and morphology of NHDF cells (bright-field imaging)” value [3] was “cell integrity and morphology were maintained”.
